# pIC50: −log10 of the molar value. Active and inactive are the calls of the source. No cut-off for these calls is given here.
# Legend:
# MCF7 [1] = assay: Antiproliferative activity against human MCF7 cells assessed as inhibition of cell growth measured after 48 hrs by MTT assay; type: functional, cell-based; settings: MCF7, 48 h
# MDA-MB-231 = assay: Antiproliferative activity against human MDA-MB-231 cells assessed as inhibition of cell growth measured after 48 hrs by MTT assay; type: functional, cell-based; settings: MDA-MB-231, 48 h
# MCF7 [2] = assay: Inhibition of cell proliferation in human MCF7 cells assessed as increase in intracellular NO production at 25 uM measured after 2.5 hrs by nitric oxide assay; type: functional, cell-based
# MCF-10A = assay: Cytotoxicity against human MCF-10A cells assessed as reduction in cell viability measured after 48 hrs by MTT assay; type: cell-based
Structure (SMILES),pIC50 (MCF7 [1]),pIC50 (MDA-MB-231),Activity (MCF7 [2]),pIC50 (MCF-10A)
COc1cc2cc(C(=O)NCCc3ccccc3)c(=O)oc2cc1OCCCOc1no[n+]([O-])c1S(=O)(=O)c1ccccc1,6.19,6.01,Active,5.20
COc1cc2cc(C(=O)Nc3ccccc3)c(=O)oc2cc1OCCCOc1no[n+]([O-])c1S(=O)(=O)c1ccccc1,6.13,5.92,Active,5.01

# — ChEMBL document CHEMBL4842344, “Design, synthesis and biological activity evaluation of novel scopoletin-NO donor derivatives against MCF-7 human breast cancer in vitro and in vivo” (Eur J Med Chem, 2021)
